Data set [1] relates to O=C(Cc1cccs1)N[C@@H]1C(=O)N2C(C(=O)O)=C(/C=C/c3ccc([N+](=O)[O-])cc3[N+](=O)[O-])CS[C@H]12. In words: purified protein. The format is biochemical, Mycobacteroides abscessus.
For another data set, the target named is T1, LdtMab2 (Mycobacteroides abscessus, UniProt B1MMQ4).
T1 construct: gene MAB_1530
T1 sequence (B1MMQ4 42-406): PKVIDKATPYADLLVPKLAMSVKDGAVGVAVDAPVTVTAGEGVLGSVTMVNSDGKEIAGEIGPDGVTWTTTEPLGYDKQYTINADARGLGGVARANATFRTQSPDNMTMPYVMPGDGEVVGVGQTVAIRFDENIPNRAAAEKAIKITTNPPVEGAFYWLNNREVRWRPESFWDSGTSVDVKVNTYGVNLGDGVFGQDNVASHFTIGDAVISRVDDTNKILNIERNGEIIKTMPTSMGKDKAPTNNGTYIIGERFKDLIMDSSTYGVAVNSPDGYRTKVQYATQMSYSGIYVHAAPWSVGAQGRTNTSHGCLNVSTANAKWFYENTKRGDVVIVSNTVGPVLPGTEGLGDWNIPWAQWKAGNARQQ
The data set is described as follows: timed ESI-MS of intact protein, +[…] Da carbamoyl-enzyme adduct after […] h. The class given is binding.

In another data set the target is T2, BlaMab (Mycobacteroides abscessus, UniProt B1MCI3).
T2 construct: gene MAB_2875
In words: nitrocefin competition kinetics with purified enzyme; ESI-MS carbamoyl-enzyme adduct (+[…] Da); Kd = koff/(k2/K). The format is biochemical.

For the next data set, the target named is T3, LdtMab4 (Mycobacteroides abscessus, UniProt B1MKW1).
T3 construct: gene MAB_4537c
T3 sequence (B1MKW1 42-333): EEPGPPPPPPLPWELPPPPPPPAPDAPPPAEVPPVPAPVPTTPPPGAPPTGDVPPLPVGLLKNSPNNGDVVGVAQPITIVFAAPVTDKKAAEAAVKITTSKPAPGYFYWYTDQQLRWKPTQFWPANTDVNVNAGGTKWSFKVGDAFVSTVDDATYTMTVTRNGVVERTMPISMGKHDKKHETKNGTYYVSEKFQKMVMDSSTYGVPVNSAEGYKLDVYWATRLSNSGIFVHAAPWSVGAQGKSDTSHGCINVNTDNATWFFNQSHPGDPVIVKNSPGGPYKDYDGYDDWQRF
In words: timed ESI-MS of intact protein, +[…] Da carbamoyl-enzyme adduct after […] h. The format is binding.

Consider “BlaMab (Mycobacteroides abscessus ATCC 19977)”, for which the Km in data set [1] turned out to be 22 µM.

For `CC1=C[C@@H]2CN(C(=O)N2OS(=O)(=O)O)[C@@H]1C(N)=O` [DUR, durlobactam], the “timed ESI-MS of intact protein, +278 Da carbamoyl-enzyme adduct after 2 h” value on LdtMab2 was “DUR formed carbamoyl-enzyme complexes with D,D-c (Fig. 3B), LdtMab2, and LdtMab4 (Fig. 3C and E)”. At BlaMab, this molecule gave a Kd of 0.2 ± 0.1 nM. For the same molecule, the “timed ESI-MS of intact protein, +276 Da carbamoyl-enzyme adduct after 2 h” value on LdtMab4 is “DUR formed carbamoyl-enzyme complexes with D,D-c (Fig. 3B), LdtMab2, and LdtMab4 (Fig. 3C and E)”.

The values are drawn from paper PMC8787486 (mBio, 2022).
